Results from patent publication US11717480B2, “Extracellular vesicles and methods and uses thereof” (The Regents of the University of California, priority 2016, dated 2023).

Tests used:
[1] = Biodistribution: drug content of organs 24 hours after treatment; assay type: in vivo, C57BL/6 mice; conditions: lung, liver, heart, spleen, tumor
Description: Turning to FIG. 21C, serum was collected from C57BL/6 mice treated with DOX, DOXIL or DOX-EVs and analyzed for drug content. Concentration of DOX in the serum (n=3) was measured over 12 hours by a series of blood collections and fluorescence quantifications. […] Twenty-four hours after treatment, the mice were sacrificed and their organs were assessed for drug content.
For pharmacokinetics and biodistribution experiments, tumors were established and mice were treated as described above. Tail vein blood collection was completed at the time points indicated and suspended in acidified alcohol. The blood was analyzed for DOX concentration by fluorescence spectroscopy (ex. 485 nm, em. 595 nm). 24 hours post treatment, the mice were sacrificed and the organs were extracted. The organs were cryopulverized and resuspended in acidified alcohol for fluorescence spectroscopy (ex. 485 nm, em. 595 nm) analysis.

EL4 cells = assay: In vitro MTT viability assay of EL4 cells; assay type: cell-based, mouse; conditions: highest concentrations tested, n=3, one-way ANOVA and Tukey HSD
Description: Turning now to FIG. 20. FIG. 20 describes the effect of therapeutic agents delivered by EVs of various embodiments as compared to other forms of drug delivery. […] (See, Immordino, et al., Int. J. Nanomedicine 1, 297-315 (2016), the disclosures being incorporated herein by reference.)
EL4 cells were treated over 24 or 48 hours with DOX, DOXIL, DOX-EVs, or unloaded EVs. […] It is important to note that DOX-loaded EVs would not be expected to outperform free DOX in vitro study since their primary benefits (improved biocompatibility and extended release) are critical factors in an in vivo delivery setting.
In vitro viability studies. EL4 cells were plated at 20,000 cells/well in 100 μL of DMEM with 10% FBS. Cells were incubated for 24 hours or 48 hours with the concentrations of DOX, DOXIL or DOX-EVs described in FIG. 20. An MTT assay was performed and cells were incubated with 1 mg/mL of MTT for 1 hour. The crystals were dissolved in 100 μL of DMSO and the absorbance of each well was characterized at 560 nm.
Turning now to FIG. 20. FIG. 20 describes the effect of therapeutic agents delivered by EVs of as compared to other forms of drug delivery. […] (See, Immordino, et al., Int. J. Nanomedicine 1, 297-315 (2016), the disclosures being incorporated herein by reference.)
EL4 cells were treated over 24 or 48 hours with DOX, DOXIL, DOX-EVs, or unloaded EVs. […]

- Accumulation of drug in organs [1]: tends to accumulate in the lung
Compound: COc1cccc2c1C(=O)c1c(O)c3c(c(O)c1C2=O)C[C@@](O)(C(=O)CO)C[C@@H]3O[C@H]1C[C@H](N)[C@H](O)[C@H](C)O1 [DOX, doxorubicin]
- Viability of EL4 cells versus controls (EL4 cells): statistically significant (p<0.01) from the controls
